In article PMC10388363, “Novel 1,4-Dihydropyridines as Specific Binders and Activators of SIRT3 Impair Cell Viability and Clonogenicity and Downregulate Hypoxia-Induced Targets in Cancer Cells” (Journal of Medicinal Chemistry, 2023):

How the values were obtained:
[1] = biological target: T1, human SIRT3 (Homo sapiens, UniProt Q9NTG7); assay: Surface plasmon resonance binding assay, immobilized SIRT3; settings: SPR, Scatchard analysis, analytes 5-80 μM
T1 construct: pET151D/Topo (Sirt3-114-380 and Sirt5-34-302); His tag (N, cleaved yes); made in house; host or cells: Escherichia coli
T1 sequence (Q9NTG7 114-380): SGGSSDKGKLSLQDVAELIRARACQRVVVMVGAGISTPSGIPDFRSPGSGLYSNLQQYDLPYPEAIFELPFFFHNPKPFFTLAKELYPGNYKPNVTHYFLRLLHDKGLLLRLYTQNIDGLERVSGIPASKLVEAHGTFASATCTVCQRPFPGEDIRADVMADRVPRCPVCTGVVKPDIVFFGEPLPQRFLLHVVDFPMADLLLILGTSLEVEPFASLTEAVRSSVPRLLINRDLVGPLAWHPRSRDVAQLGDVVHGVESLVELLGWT
Protocol: Next, surface plasmon resonance (SPR) experiments were conducted with selected SIRT3 activators 2e and 3a–d to ascertain their biophysical interaction with the human SIRT3 protein. Their parental compounds 2 and 3, together with honokiol, were used as positive controls. The experiments were carried out twice at different concentrations (5, 10, 20, 40, and 80 μM), by injecting the compounds at increasing doses (Figure 5). The resonance units (RU) increase with respect to baseline indicates the formation of the SIRT3/ligand complex, the plateau region represents the steady-state phase of the interaction (RUeq, RU at equilibrium) and the decrease in RU after 180 s represents dissociation of analytes from the immobilized SIRT3 protein after injection of the buffer.
SPR experiments were carried out using a SensiQ Pioneer system (SensiQ, Oklahoma City, OK, USA), essentially as in Genovese et al. 2020[84] and in Battista et al. 2021,[85] with some modifications, as follows.
The sensor chip (COOH5) was chemically activated by a 35 μL injection of a 1:1 mixture of […] (200 mM) and N-hydroxysuccinimide (50 mM) at a flow rate of 5 μL/min. Sirtuin3 (ligand) was immobilized on activated sensor chips via amine coupling. Immobilization was carried out in 20 mM sodium acetate at pH 4.0; unreacted groups were blocked by injecting 1 M ethanolamine hydrochloride (35 μL). Sirtuin3 immobilization level obtained was 1500–4000 RU.
The analytes, dissolved in 100% DMSO at 10 mM concentration, were diluted in buffer 20 mM Hepes, 150 mM NaCl, 0.005% surfactant P20 buffer (HBSP) to a concentration of 200 μM (2% final DMSO concentration), further diluted in HBSP + 2% DMSO (HBSP2%D) and injected on the sensor chip at a constant flow rate (nominal flow rate = 30 μL/min) at the following concentrations: 5, 10, 20, 40, and 80 μM.
The RU increase relative to baseline indicates complex formation (taking place at known analytes concentrations at each moment in the gradient); the plateau region represents the steady-state phase of the interaction (RUeq); and the decrease in RU after 180 s represents dissociation of analytes from the immobilized Sirtiun3 after injection of HBSP2%D. Regeneration procedures are based on two long (2000 and 500 s) injections of buffer, separated by a brief (5 s) injection of 10 mM NaOH.
Control experiments were performed in sensor chips treated as described above in the absence of an immobilized ligand. Kinetic evaluation of the sensorgrams was obtained using the SensiQ Qdat program and full fitting with 1, 2, and 3 sites; Scatchard analysis was used to determine apparent KD values.

[2] = biological target: T2, human SIRT1 (Homo sapiens, UniProt Q96EB6); parameters: method as in PMID 36228194; settings: 100 μM; cited from earlier work
T2 construct: using constructs in pET15b (Sirt1); His tag (N, cleaved yes); made in house; host or cells: Escherichia coli
T2 sequence (Q96EB6 1-747): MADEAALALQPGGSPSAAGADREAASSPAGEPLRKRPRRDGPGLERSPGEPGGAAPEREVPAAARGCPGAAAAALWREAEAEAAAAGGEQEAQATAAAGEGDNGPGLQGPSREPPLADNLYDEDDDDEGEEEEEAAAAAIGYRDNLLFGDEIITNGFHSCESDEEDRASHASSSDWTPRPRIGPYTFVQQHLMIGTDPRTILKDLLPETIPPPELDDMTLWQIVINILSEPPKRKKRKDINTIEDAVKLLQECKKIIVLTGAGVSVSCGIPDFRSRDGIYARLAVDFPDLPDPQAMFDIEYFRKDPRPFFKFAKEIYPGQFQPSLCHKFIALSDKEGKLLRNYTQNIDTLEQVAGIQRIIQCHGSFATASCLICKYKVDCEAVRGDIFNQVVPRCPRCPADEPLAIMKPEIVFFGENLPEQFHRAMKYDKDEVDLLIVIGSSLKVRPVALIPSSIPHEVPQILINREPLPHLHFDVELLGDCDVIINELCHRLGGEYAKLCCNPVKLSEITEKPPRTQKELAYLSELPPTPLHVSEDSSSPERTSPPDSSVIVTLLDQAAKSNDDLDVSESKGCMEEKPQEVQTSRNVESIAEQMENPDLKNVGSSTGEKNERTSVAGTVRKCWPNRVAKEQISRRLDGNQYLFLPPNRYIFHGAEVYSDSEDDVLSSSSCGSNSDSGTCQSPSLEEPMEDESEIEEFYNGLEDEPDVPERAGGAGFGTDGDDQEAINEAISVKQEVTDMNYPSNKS

[3] = biological target: T1, human SIRT3; parameters: method as in PMID 36228194; settings: 100 μM; cited from earlier work

In the case of `CCOC(=O)C1=CN(C(=O)c2ccccc2)C=C(C(=O)OCC)C1c1ccccc1` [Compound 2], the Kd [1] is listed as 40 to 47 µM, the SIRT1 activation [2] is listed as “below 200%” and the SIRT3 activation [3] is listed as “over 300%”.
